Where “and” joins values, the source holds several entries; their conditions need not be identical. Equal values may be shown once. Numbers after ± are expanded uncertainties.
Experiment: activity coefficient (dimensionless); of the first substance listed, at infinite dilution; xn = mol fraction of the nth substance listed
Settings: 101.33 kPa, Liquid, Chromatography, x1 = 0

CC(=O)C(C)=O [2,3-butanedione] + O
activity coefficient (298.1 K): 13.3 and 13.2
activity coefficient (298.17 K): 13.2 and 13.1

CCCCC(C)=O [2-hexanone] + O
activity coefficient (297.85 K): 319 ± 14
activity coefficient (298.15 K): 265 ± 12

CSC [2-thiapropane] + O
activity coefficient (298.01 K): 175 and 173 and 171
activity coefficient (298.02 K): 184 and 185
activity coefficient (298.03 K): 170 and 173
activity coefficient (298.07 K): 178 ± 12

CC(C)=O [acetone] + O
activity coefficient (298.01 K): 7.62 and 7.68
activity coefficient (298.03 K): 7.64 and 7.7
activity coefficient (298.04 K): 7.68 and 7.74
activity coefficient (298.17 K): 7.7 ± 0.34

CCC(C)=O [butanone] + O
activity coefficient (297.85 K): 25.8 ± 1.1
activity coefficient (298.15 K): 26.1 ± 1.2

CC=O [ethanal] + O
activity coefficient (298.13 K): 4.13 [middle of 4 runs]
activity coefficient (298.15 K): 4.14 ± 0.19

CCO [ethanol] + O
activity coefficient (298.15 K): 3.77 ± 0.17

CCCC(C)=O [pentan-2-one] + O
activity coefficient (297.85 K): 129 ± 6
activity coefficient (298.15 K): 148 ± 7

CCCO [propan-1-ol] + O
activity coefficient (298.01 K): 13.4 ± 0.6
activity coefficient (298.03 K): 13.3 ± 0.6
activity coefficient (298.04 K): 13.3 ± 0.6
activity coefficient (298.1 K): 13.4 and 13.3

Reference: the NIST ThermoML archive (doi:10.1021/je0495942)
